Consider 3 compounds from ChEMBL document CHEMBL1201862, “PubChem BioAssay data set” (2004).

Among the test systems are MDA-MB-435; NCI-H460; CCRF-CEM; DU-145; COLO 205; MDA-N; OVCAR-3; CAKI-1; RPMI-8226; T47D; K562; UO-31; NCI/ADR-RES; TK-10; SNB-75; Hs-578T; 786-0; SF-539; UACC-62; EKVX.
Assay in all cases: NCI-60 cell line screen, 48 h

SMILES strings stand for the structures.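 Where inhibition never reached the appropriate level, the endpoint shown equals the highest concentration tested. Otherwise, values were interpolated linearly from a five-concentration, 48-hour dose response in 96-well plates. GI50 is the concentration that inhibits growth by half.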 The source made the active and inactive calls. No stated cut-off is given here; in the data, active = GI50 up to about 1.1 µM and inactive = higher. A value given as a limit tells only on which side of the number the result lay.

On to `c1ccc(/N=C2/SC(c3ccccc3)(c3ccccc3)c3ccccc32)cc1`, for which the GI50 in the experiment on MDA-MB-435, in the experiment on NCI-H460, in the experiment on CCRF-CEM, in the experiment with DU-145, in the experiment with COLO 205 and with MDA-N was > 100 µM (inactive) each time. For the same compound, the GI50 in the experiment on OVCAR-3, in the experiment with CAKI-1, with RPMI-8226, in the experiment with T47D, in the experiment on K562 and with UO-31 was > 100 µM (inactive) throughout. Besides, the GI50 in the experiment on NCI/ADR-RES, in the experiment with TK-10, in the experiment on SNB-75, in the experiment on Hs-578T, with 786-0 and with SF-539 was > 100 µM (inactive) in each case. The GI50 in the experiment on UACC-62 and with EKVX was > 100 µM (inactive) in each case.

As for `CC(=O)Nc1cc(Cl)cc(Cl)c1O`, the GI50 with MDA-MB-435, in the experiment on NCI-H460, with CCRF-CEM, in the experiment with DU-145, with COLO 205 and in the experiment with MDA-N was > 100 µM (inactive) throughout. The GI50 in the experiment with OVCAR-3, in the experiment on CAKI-1, with RPMI-8226, with T47D, in the experiment on K562 and in the experiment with UO-31 was > 100 µM (inactive) each time. Also, the GI50 in the experiment with NCI/ADR-RES is > 100 µM (inactive); with TK-10, > 100 µM (inactive); in the experiment on SNB-75 it was 97.1 µM (inactive); with Hs-578T, > 100 µM (inactive); in the experiment with 786-0, > 100 µM (inactive); in the experiment on SF-539, > 100 µM (inactive). The GI50 with UACC-62 and in the experiment with EKVX was > 100 µM (inactive) throughout.

On to `CCOc1cc2c(cc1O)C=C[C@@H]1[C@@H]2CC[C@]2(C)[C@@H](O)CC[C@@H]12`, for which the GI50 was 0.334 µM (active) in the experiment with MDA-MB-435; 2.05 µM (inactive) in the experiment on NCI-H460; 3.15 µM (inactive) in the experiment on CCRF-CEM; 1.53 µM (inactive) in the experiment on DU-145; 21.1 µM (inactive) with COLO 205; 0.33 µM (active) in the experiment with MDA-N. Further, the GI50 is 1.87 µM (inactive) with OVCAR-3; 5.28 µM (inactive) in the experiment with CAKI-1; 2.52 µM (inactive) in the experiment with RPMI-8226; 6.01 µM (inactive) in the experiment on T47D; 1.8 µM (inactive) in the experiment with K562; 6.08 µM (inactive) with UO-31. Besides, the GI50 is 1.37 µM (inactive) in the experiment on NCI/ADR-RES; 14.4 µM (inactive) with TK-10; 3.3 µM (inactive) in the experiment on SNB-75; 4.19 µM (inactive) in the experiment with Hs-578T; 4.35 µM (inactive) in the experiment with 786-0; 2.04 µM (inactive) with SF-539. Besides, the GI50 in the experiment on UACC-62 is 4.07 µM (inactive); in the experiment with EKVX it was 4.79 µM (inactive).
